Usually melting point stands for the temperature of the solid-liquid transition.

The source of these data is patent publication US20160113900A1, “INHIBITORS OF MITOCHONDRIAL STAT3 AND USES THEREOF IN MODULATION OF MAST CELL EXOCYTOSIS” (Yissum Research Development Company of the Hebrew …, priority 2014, published 2016).

Data set [1] concerns RBL cells. As to the kind of experiment: ATP determination (ATPLite luminescence) in RBL cells. Type of data set: cell-based, rat. As to conditions: RBL cells. The protocol:
(§1) RBL-2H3 cells were maintained in RPMI 1640 medium as previously described1. Bone marrow was isolated from 5-6 week-old mice, and BMMC were cultured in RPMI medium supplemented with 20 ng/ml interleukin-3 (IL-3) and 20 ng/ml SCF as previously described2, 3. Cells were generally grown for a minimum of 4 weeks and used when >90% of the population expressed FcεRI. BMMC and RBL cells were sensitized first with anti-DNP IgE monoclonal antibody (SPE-7; Sigma-Aldrich Corp.) and then challenged with DNP-BSA (Sigma-Aldrich Corp.). IgE antibody was centrifuged (18,000 g, 5 min) before use to remove aggregates. […] For glycolysis elimination cells were maintained in glucose-free RPMI supplemented with 10% dialyzed fetal calf serum and 5 mM galactose.
ATP levels were measured using the ATPLite luminescence-based assay according to the manufacturer's instructions (Perkin Elmer, Waltham, Mass., USA).
Background: ATP-based viability assays read luminescence as a measure of living cells.

Data set [2] deals with RBL cells. Put plainly: Oxygen consumption (Seahorse XF analyzer) in RBL cells. It counts as cell-based, rat. As to conditions: RBL cells, 3 h. On the procedure:
as §1
Oxygen consumption rate (OCR) was measured using an XF24 extracellular flux analyzer (Seahorse Biosciences, North Billeric, Mass., USA).

For data set [3], the system named is caspase3. As to the kind of experiment: Western blot of caspase3 / cleaved caspase3 (apoptosis) in RBL cells. Type of data set: cell-based, rat. As to conditions: RBL cells. On the procedure: (§2) RBL cells and mitochondrial pellets were lysed by the addition of lysis buffer (50 mM Tris-HCl pH 7.4, 1% Nonidet P-40, 0.25% Na-deoxycholate, 150 mM NaCl, 1 mM EDTA, 1 mM PMSF) supplemented with 15 μl protease inhibitor (Sigma-Aldrich). Cells and mitochondria were vortexed and incubated on ice for 15 min. The lysates were then centrifuged at 14,000 g for 15 min and pellets were discarded. The protein concentration of each sample was determined using Bradford Reagent (Sigma-Aldrich). Proteins were resolved by 10-15% SDS-PAGE under reducing conditions and transferred to polyvinylidene difluoride membranes (Millipore Billerica, Ma). The membranes were incubated in 5% fat-free milk and TBST (10 mM Tris-HCl, pH 7.4, 150 mM NaCl, 0.1% Tween 20) for 1 h and then in 5% BSA and TBST containing various dilutions of primary Abs for 18 h at 4° C. The membranes were washed three times with TBST for 5 mM before and after each incubation with secondary Ab. The proteins were detected with the appropriate secondary Ab (1 h; room temperature) coupled to HRP-conjugated goat anti-rabbit or anti-mouse Ab and visualized by chemiluminescence according to the manufacturer's instructions (Pierce).

For data set [4], the system named is RBL cells. Put plainly: β-Hexosaminidase release assay (degranulation) in RBL cells. It counts as cell-based, rat. The note with it: for Emax at 6 µM: Rattus norvegicus, 3 h incubation, read-out: maximum effect, reduction of degranulation. On the procedure:
as §1
(§3) 1×104 RBL or 3×104 BMMC were immunologically activated as described above. After IgE incubation, the cells were washed three times with 5 mL of degranulation buffer (NaCl 130 mM, KCl 5 mM, Glucose 5.6 mM, MgCl2 1 mM, CaCl2 1.2 mM, Hepes pH 7.4 10 mM, BSA 0.1%) and resuspended in 200 μL of the same buffer with DNP-albumin for 30 min. The release of β-hexosaminidase was determined in triplicates in a 96-well plate. Aliquots (20 μL) of supernatants and cell lysates were incubated for 30 minutes with 100 μL of substrate solution (1.3 mg/mL p-nitrophenyl-b-D-2-acetamido-2-deoxyglucopyranozide in 0.1 M citrate [pH 4.51]). The reaction was stopped by the addition of 200 μL of 0.2 M glycine (pH 10.7). The plate OD was read in an enzyme-linked immunosorbent assay (ELISA) reader at a wavelength of 405 nm Percent release values for each experimental condition were calculated3.

The test system of data set [5] is BMMC. As to the kind of experiment: β-Hexosaminidase release assay (degranulation) in BMMC. It counts as cell-based, mouse. As to conditions: activated BMMC, 6 μM. On the procedure: as §1, §3
Data set [6] deals with RBL cells. Put plainly: TNF-α secretion of activated RBL cells. It counts as cell-based, rat. The note with it: activated RBL cells (FIG. 19G).
Data set [7] deals with BMMC. As to the kind of experiment: Measurements of secreted mediators (ELISA) in activated BMMC. As to conditions: for Granzyme-B secretion: BMMC (data not shown); for cytokine secretion: IL-6 / cytokine secretion: TNF-α: immunologically activated BMMC, 6 μM (FIG. 21C). It counts as cell-based, mouse. On the procedure:
1×106 BMMC were immunologically activated as described above. After IgE incubation, the cells were washed three times in PBS and incubated with DNP-albumin (Sigma-Aldrich) for 30 mM in complete growth medium. Supernatant was collected and Granzyme B and TNFα content were measured using ELISA Kits (eBioscience).

Data set [8] deals with plasma histamine. Put plainly: In vivo histamine release assay, passive systemic IgE-mediated anaphylaxis model. The note with it: 3.5 h before DNP-BSA challenge. On the procedure:
C3H 6-7 week male and female WT mice were purchased from Jackson Lab (Cambridge, Mass., USA), mice were fed a regular diet and with drinking water ad libitum. Experiments were approved by The Hebrew University Ethical Committee for Animal Experimentation.
WT C3H mice were sensitized with 3 μg murine IgE anti-DNP mAb SPE-7 by means of intravenous injection in the tail vein. Twenty-four hours later, mice were treated with 40 mg/kg of static dissolved in corn oil or corn oil alone for 2.5 hours, then mice were challenged with i.v. injection of DNP-BSA (250 μg per mouse). 100 μl of blood was collected immediately and added to an equal volume of pre-cold Alsever's Solution. Blood was centrifuged 2000 g for […] and plasma supernatant was collected. Plasma histamine levels were determined by using competitive ELISA (IBL International Gmbh, Hamburg, Germany).
STAT3's role in vivo was investigated by evaluating the response to allergic stimulation in Stattic-treated mice. The passive systemic IgE-mediated anaphylaxis model was used. Mice were injected (i.v.) with IgE anti-DNP. Twenty four hours later they were injected (i.p.) with Stattic (80 mg/kg) or corn oil which was used as control. Three and a half hours later the mice were challenged with DNP-BSA for 1.5 minutes. Plasma was collected, and histamine levels were measured by competitive ELISA. Histamine secretion in Stattic-treated mice was 43% less than that in control mice (FIG. 17, p<0.05).
Mitocur-1/3 effectiveness in vivo was investigated by evaluating the response to allergic stimulation in Mitocur-1/3-treated mice. The passive systemic IgE-mediated anaphylaxis model was used. Mice were injected (i.v.) with IgE anti-DNP. Twenty four hours later they were injected (i.p.) with Mitocur-1 (80 mg/kg) and Mitocur-3 (40 mg/kg). Corn oil was used as control. Three and a half hours later the mice were challenged with DNP-BSA for 1.5 minutes. Plasma was collected, and histamine levels were measured by competitive ELISA. Histamine secretion in Mitocur-1-treated mice was 35% less than that in control mice (FIG. 22A, p<0.05).

Data set [9] concerns c-myc. As to the kind of experiment: Western blot of c-myc (STAT3 target gene) in RBL cells. As to conditions: 3 h; for c-myc levels compared to control: 6 μM; for c-myc levels: concentrations higher than 6 μM. Type of data set: cell-based, rat. The protocol:
as §2
The levels of cleaved caspase3 were measured as an indicator of apoptosis, which could occur as a result of inhibiting STAT3's target genes. […] Since higher concentrations reduced the levels of c-myc and enhanced the levels of cleaved caspase3, the inventors concluded that 6 μM Mitocur-1/3 or lower would be suitable for the present invention. As these molecules are intended to be used in a time frame greater than 3 h, RBL cells were incubated with the same concentrations of Mitocur-1/3 for 24 h and the levels of cleaved caspase3 were determined by Western blot analysis.

Data set [10] relates to caspase3. As to the kind of experiment: Western blot of cleaved caspase3 in BMMC. It counts as cell-based, mouse. The note with it: 6 μM (FIG. 21D). In general terms: A western blot detects proteins with antibodies after separation by electrophoresis.
For data set [11], the system named is CBMC. Put plainly: β-Hexosaminidase release assay (degranulation) in human cord blood-derived mast cells. Type of data set: cell-based. As to conditions: 12 μM, 3 h incubation.
The conditions of data set [12]: cited from earlier work.
[13] abbreviates: concentrations higher than 6 μM, 3 h.

SMILES strings stand for the structures. Bounds are passed on as bounds.

In turn, `COc1cc(/C=C/C(=O)CC(=O)/C=C/c2ccc(OCCC[P+](c3ccccc3)(c3ccccc3)c3ccccc3)c(OC)c2)ccc1OCCC[P+](c1ccccc1)(c1ccccc1)c1ccccc1` [Mitocur-1, 1,7-Bis{3-methoxy-4-[3-(triphenylphosphonium)propoxy]-phenyl}hepta-1,6-diene-3,5-dione dichloride] registered a melting point of 130 to 140 °C. Besides, the ATP levels entry in [1] (100 μM, 3 h (data not shown)) is “reduced”. In data set [1] (6-50 μM, 3 h), the ATP levels entry is listed as “No significant reduction”. Also, the oxygen consumption result in data set [2] (100 μM) is reported as “reduced”. The oxygen consumption entry in data set [2] (6-50 μM) is “No significant reduction”. For the same compound, the cleaved caspase levels entry in [3] (6 μM, 3 h) is on record as “no change”. In addition, the “cleaved caspase3 levels” value in data set [3] (setting [13]) is recorded as “enhanced”. Also, the Emax at 6 µM in data set [4] (RBL cells) was above 50%. For the same compound, in data set [5] (3 h incubation), the degranulation levels entry is recorded as “reduced”. The degranulation levels result in data set [5] (24 h incubation) is listed as “reduced”. The TNF-α secretion entry in [6] is “completely abolished”. Besides, in data set [7], the Granzyme-B secretion result is “abolished”, the “cytokine secretion: IL-6” value is given as “totally abolished” and the “cytokine secretion: TNF-α” value is recorded as “totally abolished”. For the same compound, the “histamine secretion less than in control mice” value in data set [8] (Mitocur-1 80 mg/kg i.p.) is 35%. Further, in data set [9], the “c-myc levels compared to control” value was “no change” and the c-myc levels entry was “reduced”. Besides, the “cleaved caspase3 levels” value in data set [10] is “no change”.
As to `O=C(/C=C/c1ccc(OCCC[P+](c2ccccc2)(c2ccccc2)c2ccccc2)cc1)CC(=O)/C=C/c1ccc(OCCC[P+](c2ccccc2)(c2ccccc2)c2ccccc2)cc1` [Mitocur-3, 1,7-{4-[3-(triphenylphosphonium)propoxy]phenyl}hepta-1,6-diene-3,5-dione dichloride], the melting point lay in the range of 145 to 160 °C. Also, in data set [1] (100 μM, 3 h (data not shown)), the ATP levels result was “reduced”. For the same compound, the ATP levels entry in data set [1] (6-50 μM, 3 h) is on record as “No significant reduction”. In data set [2] (100 μM), the oxygen consumption result is “reduced”. Besides, in [2] (6-50 μM), the oxygen consumption entry is on record as “No significant reduction”. Also, the cleaved caspase levels entry in [3] (6 μM, 3 h) is on record as “no change”. The “cleaved caspase3 levels” value in [3] (6 μM, 24 h) is recorded as “slight change”. In data set [3] (setting [13]), the “cleaved caspase3 levels” value is given as “enhanced”. For the same compound, in data set [4] (RBL cells), the Emax at 6 µM is above 50%. Besides, in data set [5] (3 h incubation), the degranulation levels result was “reduced”. Besides, the degranulation levels result in data set [5] (24 h incubation) is given as “reduced”. For the same compound, the degranulation levels result in data set [11] is recorded as “successfully reduced”. The TNF-α secretion entry in data set [6] was “completely abolished”. Further, in data set [7], the Granzyme-B secretion entry was “abolished”, the “cytokine secretion: IL-6” value was “totally abolished” and the “cytokine secretion: TNF-α” value is given as “totally abolished”. The “decrease in histamine secretion” value in data set [8] (mice, Mitocur-3 40 mg/kg i.p.) stood at 32.4%. Also, in data set [9], the “c-myc levels compared to control” value is reported as “no change” and the c-myc levels result was “reduced”. Also, the “cleaved caspase3 levels” value in [10] is “no change”.
Regarding `COc1cc(/C=C/C(=O)CC(=O)/C=C/c2ccc(O)c(OC)c2)ccc1O` [curcumin, (1E,6E)-1,7-Bis(4-hydroxy-3-methoxyphenyl)-1,6-heptadiene-3,5-dione], the “degranulation (β-hexosaminidase release)” value in data set [4] (RBL cells, curcumin 12.5, 25, 50 and 100 μM, 10 min (FIG. 19A)) is listed as “significantly reduced”. Also, the degranulation levels entry in [4] (activated RBL cells, 10 min incubation with curcumin (FIG. 8)) is “completely abolished”. In addition, the “pKa of the two phenolic OH groups” value in data set [12] is recorded as 10-10.5.
